From ChEMBL document CHEMBL5634178, “Precursor-Directed Biosynthesis of Neoantimycin Derivatives with Selective Cytotoxicity” (J Nat Prod, 2024) come the findings set out here.

The test system of one data set is DLD-1. The data set is described as follows: Cytotoxicity against human DLD-1 cells expressing K-Ras G13D mutant assessed as reduction in cell viability incubated for 72 hrs by CCK-8 assay. It is filed as functional, cell-based. The settings on record: DLD-1, 72 h.
The test system of a further data set is SW-620. The data set is described as follows: Cytotoxicity against human SW620 cells expressing K-Ras G12V mutant assessed as reduction in cell viability incubated for 72 hrs by CCK-8 assay. The conditions noted are these: SW-620, 72 h. It is filed as functional, cell-based.
Data set [1] in a line: Cytotoxicity against human NCM460 cells assessed as reduction in cell viability incubated for 72 hrs by CCK-8 assay. Format: toxicity, cell-based.
The next data set concerns NCI-H460. Briefly: Cytotoxicity against human NCI-H460 cells expressing K-Ras Q61H mutant assessed as reduction in cell viability incubated for 72 hrs by CCK-8 assay. Format: functional, cell-based. The settings on record: NCI-H460, 72 h. A general note: Tetrazolium dyes change colour on reduction, which living cells bring about.
The next data set relates to NCI-H1299. The data set is described as follows: Cytotoxicity against human NCI-H1299 cells expressing N-ras mutant assessed as reduction in cell viability incubated for 72 hrs by CCK-8 assay. It is filed as functional, cell-based. The settings on record: NCI-H1299, 72 h.
The test system of a further data set is A549. The data set is described as follows: Cytotoxicity against human A549 cells expressing K-Ras […] mutant assessed as reduction in cell viability incubated for 72 hrs by CCK-8 assay. Format: functional, cell-based. The settings on record: A549, 72 h.
A further data set relates to HT-29. Briefly: Cytotoxicity against wild type human HT-29 cells assessed as reduction in cell viability incubated for 72 hrs by CCK-8 assay. Format: functional, cell-based. The conditions noted are these: HT-29, 72 h.

Bounds are passed on as bounds.

For orientation: IC50 means the point on the concentration scale where inhibition reaches its midpoint. With `CC[C@H](C)[C@@H]1OC(=O)C(C)(C)C(=O)[C@@H](Cc2ccccc2)OC(=O)[C@H](C(C)C)OC(=O)[C@@H](NC(=O)c2ccccc2F)[C@@H](C)OC1=O`, the IC50 with DLD-1 is 0.6 µM; in the data set with SW-620, 0.14 µM; in the data set on NCI-H460, 1.3 µM; in the data set with NCI-H1299, 3.3 µM; with A549, 4.3 µM; in the data set on HT-29 it was over 20 µM. In data set [1], the IC50 at 72 h is over 20 µM.

On to `CC[C@H](C)[C@@H]1OC(=O)C(C)(C)C(=O)[C@H](Cc2ccccc2)OC(=O)[C@H](C(C)C)OC(=O)[C@@H](NC(=O)c2cccc(O)c2)[C@@H](C)OC1=O`, for which the IC50 in the data set with DLD-1 is over 20 µM; in the data set on SW-620 it was 1.3 µM; in the data set with NCI-H460, 17.9 µM; in the data set on NCI-H1299, 3.1 µM; in the data set with A549 it was over 20 µM; in the data set with HT-29, over 20 µM. In addition, the IC50 at 72 h in data set [1] is over 20 µM.

With `CC[C@H](C)[C@@H]1OC(=O)C(C)(C)[C@@H](O)[C@@H](Cc2ccccc2)OC(=O)[C@H](C(C)C)OC(=O)[C@@H](NC(=O)c2cccc(NC=O)c2O)[C@@H](C)OC1=O`, the IC50 is 0.059 µM with DLD-1; 0.0038 µM in the data set with SW-620; 0.316 µM with NCI-H460; 0.0105 µM with NCI-H1299; 4e-05 µM with A549; 0.0006 µM with HT-29. The IC50 at 72 h in data set [1] was found to be 0.00024 µM.

Turning to `CC[C@H](C)[C@@H]1OC(=O)C(C)(C)C(=O)[C@H](Cc2ccccc2)OC(=O)[C@H](C(C)C)OC(=O)[C@@H](NC(=O)c2ccccc2)[C@@H](C)OC1=O`, the IC50 is 1.9 µM with DLD-1; 0.36 µM in the data set on SW-620; over 20 µM with NCI-H460; over 20 µM in the data set on NCI-H1299; over 20 µM in the data set on A549; over 20 µM in the data set on HT-29. For the same compound, in data set [1], the IC50 at 72 h was over 20 µM.

Consider `CC[C@H](C)[C@@H]1OC(=O)C(C)(C)C(=O)[C@H](Cc2ccccc2)OC(=O)[C@H](C(C)C)OC(=O)[C@@H](NC(=O)c2cccc(F)c2)[C@@H](C)OC1=O`, for which the IC50 in the data set on DLD-1 is 3.5 µM; in the data set with SW-620 it was 1.1 µM; with NCI-H460, over 20 µM; with NCI-H1299, over 20 µM; with A549, over 20 µM; in the data set with HT-29, over 20 µM. Besides, in data set [1], the IC50 at 72 h is over 20 µM.

For `CC[C@H](C)[C@@H]1OC(=O)C(C)(C)C(=O)[C@@H](Cc2ccccc2)OC(=O)[C@H](C(C)C)OC(=O)[C@@H](NC(=O)c2cccc(O)c2)[C@@H](C)OC1=O`, the IC50 with DLD-1 is over 20 µM; in the data set on SW-620, 1.9 µM; in the data set with NCI-H460, over 20 µM; with NCI-H1299, over 20 µM; in the data set on A549, 10.1 µM; in the data set on HT-29 it was over 20 µM. Besides, the IC50 at 72 h in data set [1] was over 20 µM.

On to `CC[C@H](C)[C@@H]1OC(=O)C(C)(C)C(=O)[C@@H](Cc2ccccc2)OC(=O)[C@H](C(C)C)OC(=O)[C@@H](NC(=O)c2ccccc2)[C@@H](C)OC1=O`, for which the IC50 in the data set with DLD-1 is 0.07 µM; with SW-620 it was 0.04 µM; in the data set on NCI-H460 it was 1.6 µM; with NCI-H1299, 4.5 µM; in the data set on A549, 0.33 µM; in the data set with HT-29, over 20 µM. The IC50 at 72 h in data set [1] is over 20 µM.

Regarding `CC[C@H](C)[C@@H]1OC(=O)C(C)(C)C(=O)[C@H](Cc2ccccc2)OC(=O)[C@H](C(C)C)OC(=O)[C@@H](NC(=O)c2ccccc2F)[C@@H](C)OC1=O`, the IC50 with DLD-1 was 2.6 µM; in the data set on SW-620, 0.56 µM; with NCI-H460, over 20 µM; with NCI-H1299 it was over 20 µM; in the data set with A549 it was over 20 µM; with HT-29, 9.4 µM. In data set [1], the IC50 at 72 h is over 20 µM.

As for `CC[C@H](C)[C@@H]1OC(=O)C(C)(C)C(=O)[C@@H](Cc2ccccc2)OC(=O)[C@H](C(C)C)OC(=O)[C@@H](NC(=O)c2cccc(F)c2)[C@@H](C)OC1=O`, the IC50 with DLD-1 is 2.7 µM; in the data set with SW-620 it was 0.33 µM; in the data set with NCI-H460 it was 8.8 µM; in the data set on NCI-H1299, over 20 µM; in the data set with A549, 11.2 µM; in the data set with HT-29 it was over 20 µM. Also, the IC50 at 72 h in data set [1] was over 20 µM.

In the case of `CC[C@H](C)[C@@H]1OC(=O)C(C)(C)C(=O)[C@@H](Cc2ccccc2)OC(=O)[C@H](C(C)C)OC(=O)[C@@H](NC(=O)c2ccccc2O)[C@@H](C)OC1=O`, the IC50 is 2.8 µM in the data set with DLD-1; 0.33 µM in the data set on SW-620; 4.4 µM in the data set on NCI-H460; over 20 µM in the data set on NCI-H1299; 9.7 µM with A549; over 20 µM with HT-29. Moreover, in data set [1], the IC50 at 72 h worked out at 6.6 µM.
